From EP1030659B1 (Warner-Lambert Company LLC, priority 1997, dated 1999)

Legend:
[1] = Mean arterial blood pressure after the 75% dose in rats
[2] = biological target: α2-receptors; assay: Alpha-2 binding, p-125iodoclonidine, canine brain (frontal cortex) membranes; design: species or system mongrel dogs
Description: • PULMONARY ALPHA-1 AND BETA-2 RECEPTORS. The lungs of mongrel dogs were separated from cartilaginous airways and major blood vessels, weighed, chopped and placed into 10 volumes of ice-cold buffered sucrose (50 mM Tris-HCl, pH 7.4, 1 mM EGTA, 0.32 M sucrose). The tissue was then homogenized in a type PT10/35, size 89/PTA 20S, Polytron tissue homogenizer (Kinematica, Westbury, NY). The homogenate was filtered through two layers of cheesecloth, and the filtrate was dounced three times using a 55 ml Con-Torque Potter homogenizer (Eberbach Corporation, Ann Arbor, Ml). […] The supematant was re-centrifuged at 30,000 x g for 30 minutes at 4°C and the resulting pellet was washed and resuspended in 10 volumes of Tris buffer (50 mM Tris HCL, pH 7.4, 1 mM EGTA) and incubated at 37°C for 30 minutes in a shaking water bath. The suspension was centrifuged at 4°C at 30,000 x g for 30 minutes and the resulting pellet washed in 10 volumes of Tris buffer for a total of three additional centrifugations and washes. […] Protein concentration was determined by the Lowry method and the final suspension was adjusted to 10 mg of protein/ml, aliquoted and stored at -90°C. Particulates were also prepared for β2 receptors using the identical procedure except the final protein concentration was adjusted to 0.1 mg/ml. • BRAIN ALPHA-2 RECEPTORS: Membranes of mongrel dogs were harvested from the canine frontal cortex and prepared as described above with respect to the lungs, except that the final membrane protein concentration was adjusted to 0.5 mg/ml.
Nonspecific binding was determined for each concentration point in separate incubations using 10 µM phentolamine. Each experimental point was determined in triplicate. […] All binding assay incubations were terminated by rapid dilution with 2 ml of ice-cold wash buffer (50 mM Tris-HCl, pH 7.4) and filtration through FP-100 Whatman GF/B fired filters (Biomedical Research & Development Lab, Gaithersburg, MD) using a Brandel receptor-binding harvester. The filters were washed twice more with 4 ml of wash buffer and then added to 6 ml Cytoscint (ICN, Costa Mesa CA) for liquid scintillation counting (Barnes et al., 23 MOL. PHARMACOL. 570-75 (1983)). […] Nonspecific binding was determined in separate incubations in the presence of 10 µM phentolamine. The final concentration of p-iodoclonidine was 44-45 pM in competition studies and between 50 pM and 10 nM in saturation experiments. Bound and free p-^125 iodoclonidine were separated and the bound quantitated as described below for the ICYP assays. […] Nonspecific binding was determined in separate incubations in the presence of 2 µM d,I-propranolol. Each experimental point was determined in triplicate. […] Incubations were terminated as described above for the α1 assays. Filters were placed into polyethylene tubes and the bound ligand was determined by gamma spectrometry(Sano et al., 52 LIFE SCIENCES 1063-70 (1993)).
All data were analyzed with the aid of microcomputer nonlinear curve fitting programs (PRISM 2.0, Graphpad Software, San Diego CA).
The receptors resident in each of the three membrane preparations were evaluated by standard saturation analysis following the addition of increasing concentrations of the appropriate radioligand.
The radioligand added for subsequent α2-displacement assays was adjusted to evaluate only the high affinity receptor. Contributions from p-iodoclonidine binding to imidazoline receptors in the α2- displacement assay was evaluated with epinephrine.

[3] = system: Male Swiss-Webster mice; assay: Locomotor stimulant effects (horizontal locomotor activity); type: in vivo; conditions: i.p.
[4] = biological target: α1-receptors; assay: Alpha-1 binding, 3H-prazocin, canine lung membranes; design: species or system mongrel dogs; conditions: Ki = IC50 / 1 + I/Kd, Kd from saturation analysis; unit inferred
[5] = Dosage required to raise mean arterial pressure (MAP) by 10% in dogs; type: in vivo; conditions: experimentally determined
Description: (§1) Nasal airway pressure was measured using a Validyne pressure transducer (Validyne Engineering, Northridge, CA) with a 2.25 cm H2O range membrane connected to a multipen recorder (Grass Instruments, Quincy, MA). Air was passed through an in-line direct measure flow meter (Gilmont Instruments, Barrington, IL) connected to the nasal opening cannula. Pressure was measured in the line with a constant flow rate (150 ml/min) of air. Drugs were directly injected into the jugular vein using a 30 gauge needle. All injections were of a constant 0.1 ml volume. In the congestion challenged groups congestion was achieved by an intranasal administration of histamine (50 mM, 0.02 ml/nostril). The histamine was expelled after 2 minutes with a short nasal cannula airflow and subsequent enantiomeric drug doses were directly injected into the jugular vein. The dosage chosen for each drug was the amount needed to increase the mean arterial pressure (MAP) of the animal by 10%; this dosage served as the "100%" dose for the initial nasal airway studies. […] The dosage required for rats was calculated by proportionately adjusting the experimentally determined dog dosage to account for the lesser weight of the rats.

[6] = Nasal airway pressure (decongestant activity) in normal and histamine-challenged rats; type: in vivo, Sprague Dawley rats; conditions: for Mean Decrease in Nasal Airway Pressure: mean ± standard error; for Post Drug nasal airway pressure: 100% dose into the jugular vein; for %Change in nasal airway pressure: 100% dose
[7] = Rat dosage calculated from the dog dosage that raises MAP by 10%; type: in vivo; conditions: calculated from the dog dosage by proportionately decreasing for the lesser weight of the rat; absolute dosage
Description: as §1

[8] = system: Male Swiss-Webster mice; assay: H1 antihistamine (triprolidine) interaction studies, locomotor activity; conditions: pretreatment with 0.01, 0.1, or 1.0 mg/kg triprolidine 20 minutes before the sympathomimetic

CN[C@@H](C)[C@H](O)c1ccccc1 [(-)-ephedrine]
increase in blood pressure (in words) [1]: slightly greater (though significant) increase in blood pressure than (+)-ephedrine | Ki ([2]; Ki = IC50 / 1 + I/Kd, Kd from saturation analysis, unit inferred): […] | IC50 ([2]; inhibition of 50% of specific p-iodoclonidine binding, mean of several test samples): […] | ED50 ([3]; Mus musculus, ip, dose resulting in ½ the maximal stimulant effect, read-out: Stimulation Potency (ED50)): 38.2 mg/kg | locomotor stimulant effects, time course (in words) ([3]; 2-hour session): Dose dependent increases in locomotor activity of slower onset and longer duration | Stimulation Efficacy ([3]; ratio of the maximal stimulant effect of the test compound to the maximal effect of (+)-amphetamine): […] | Ki [4]: 47 µM | Dosage of Enantiomer, Dog: dosage required to raise MAP by 10% [5]: 100 µg/kg | Mean Decrease in Nasal Airway Pressure ([6]; 5% of the dose that increased canine resting mean arterial pressure 10%, rats): -1.0 ± 0.8 | Mean Decrease in Nasal Airway Pressure ([6]; 10% of the dose that increased canine resting mean arterial pressure 10%, rats): -2.5 ± 1.5 | Mean Decrease in Nasal Airway Pressure ([6]; 25% of the dose that increased canine resting mean arterial pressure 10%, rats): -3.6 ± 1.9 | Mean Decrease in Nasal Airway Pressure ([6]; 50% of the dose that increased canine resting mean arterial pressure 10%, rats): -1.9 ± 2.0 | effect on normal airway decongestion (in words) ([6]; 75% dose, rats): approximately the same efficacious effect on normal airway decongestion | Post Drug nasal airway pressure ([6]; histamine-challenged rats (50 mM, 0.02 ml/nostril)): 6.4 ±0.6 mm water | %Change in nasal airway pressure ([6]; histamine-challenged rats, relative to post-histamine level): -21.8 ±3.5% | Post Drug nasal airway pressure ([6]; non-histamine-challenged rats): 6 ± 0.5 mm H2O | %Change in nasal airway pressure ([6]; non-histamine-challenged rats, relative to control): -14 ± 3.4% | Dosage of Enantiomer, Rat [7]: 30 µg | interaction with triprolidine pretreatment (central nervous system stimulation, horizontal movement) [8]: increased horizontal movement
